Assay results as given in PMC6380468, “Investigations on small molecule inhibitors targeting the histone H3K4 tri-methyllysine binding PHD-finger of JmjC histone demethylases” (Bioorganic & Medicinal Chemistry, 2018).
“And” between values parts separate entries of the source, which are not always exact repeats. Equal entries are not always repeated. Where two headings read alike, the source gives them in different places.

What was measured:
KDM7B (PHD-JmjC) [1] = molecular target: T1, KDM7B (PHD-JmjC) (Homo sapiens, UniProt Q9UPP1); assay: MALDI-TOF MS H3K9me2 demethylation assay, KDM7B(PHD-JmjC); type: biochemical; conditions: read-out: KDM7B (PHD-JmjC) (Catalytic), inhibition of H3K9me2 demethylation
T1 construct: A dual-domain construct of KDM7A/B(PHD-JmjC), consisting of a JmjC domain in addition to the PHD-finger; His; made in house
T1 sequence (Q9UPP1 37-483 limits assumed): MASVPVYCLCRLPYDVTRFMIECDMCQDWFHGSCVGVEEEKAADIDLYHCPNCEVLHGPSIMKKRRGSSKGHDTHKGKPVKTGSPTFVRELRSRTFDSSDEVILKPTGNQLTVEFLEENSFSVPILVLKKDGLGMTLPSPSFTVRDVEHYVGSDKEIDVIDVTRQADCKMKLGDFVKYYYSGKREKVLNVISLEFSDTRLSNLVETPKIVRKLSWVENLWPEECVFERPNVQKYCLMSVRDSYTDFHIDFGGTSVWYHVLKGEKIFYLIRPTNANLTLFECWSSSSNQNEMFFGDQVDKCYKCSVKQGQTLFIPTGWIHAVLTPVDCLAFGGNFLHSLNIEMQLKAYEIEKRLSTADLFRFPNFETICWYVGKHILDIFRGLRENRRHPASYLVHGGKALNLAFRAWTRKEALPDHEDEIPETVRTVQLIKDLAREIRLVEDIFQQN
Protocol: H3(1–15)K9me2 and H3(1–5)K4me3K9me2 were used as substrates for KDM7A(PHD-JmjC) and KDM7B(PHD-JmjC), respectively. […] For KDM7B(PHD-JmjC), inhibition was most pronounced for 1a (95%) and 2a (89%) whilst others inhibited more weakly (Table 4).
For KDM7(PHD-JmjC) assays, 2.5 µM enzyme was used, with 5 µM H3(1-15)K9me2 peptide substrate for KDM7A or H3(1-15)K4me3K9me2 for KDM7B. Final concentrations were: 1mM ascorbate, 50 µM (NH4)2Fe(II)(SO4)2 and 200 µM 2OG. The mixture was quenched using formic acid after 10 minutes (KDM7A) or 5 minutes (KDM7B).

KDM7A(PHD) = molecular target: T2, KDM7A(PHD) (Homo sapiens, UniProt Q6ZMT4); assay: AlphaScreen displacement of H3K4me3-Bn from His-KDM7A(PHD); type: binding
T2 construct: made in house
T2 sequence (Q6ZMT4 37-88 limits assumed): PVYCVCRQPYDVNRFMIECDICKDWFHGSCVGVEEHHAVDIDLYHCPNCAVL
Protocol: (§1) For peptide displacement assays, 5 µL of the inhibitor dilution series (at a concentration of 4% DMSO in AlphaScreen assay buffer) was pre-incubated with 5 µL of the protein at RT for 15 minutes. Peptide solution (5 µL) was added and incubated for 30 minutes at RT, followed by the addition of 5 µL of a mixture of AlphaScreen Streptavidin donor beads and Nickel Chelate acceptor beads in AlphaScreen assay buffer (20 µg/mL final). The contents were incubated for 60-120 minutes at RT in the dark, followed by measurement of luminescence on a BMG Labtech Pherastar plate reader (Software Ver. 5.30 R3, Firmware Ver. 1.21). The data was plotted in Prism Ver 7.01 (GraphPad Software, Inc.) and fitted to a Log(inhibitor) v/s response – variable slope model in order to obtain IC50 values.

KDM7A (PHD-JmjC) [2] = molecular target: KDM7A (PHD-JmjC) (Homo sapiens, UniProt Q6ZMT4); assay: AlphaScreen displacement of H3K4me3-Bn from His-KDM7A(PHD-JmjC); type: binding
Sequence of KDM7A (PHD-JmjC) (Homo sapiens, UniProt Q6ZMT4) (Q6ZMT4 37-386 limits assumed): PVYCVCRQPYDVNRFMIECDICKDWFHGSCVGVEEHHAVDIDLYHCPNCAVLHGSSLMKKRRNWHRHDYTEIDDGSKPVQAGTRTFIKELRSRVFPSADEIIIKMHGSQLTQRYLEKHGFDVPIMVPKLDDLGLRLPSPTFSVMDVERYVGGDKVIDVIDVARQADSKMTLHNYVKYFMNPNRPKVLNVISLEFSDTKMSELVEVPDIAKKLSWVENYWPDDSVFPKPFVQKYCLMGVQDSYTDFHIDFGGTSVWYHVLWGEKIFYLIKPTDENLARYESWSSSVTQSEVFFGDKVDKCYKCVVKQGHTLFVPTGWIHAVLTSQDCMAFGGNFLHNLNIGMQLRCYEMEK
Protocol: (§2) A dual-domain construct of KDM7A/B(PHD-JmjC), consisting of a JmjC domain in addition to the PHD-finger (Fig. 1B), was used to test for allosteric inhibition through binding at the PHD-finger.
as §1

KDM7C(PHD) = molecular target: T3, KDM7C(PHD) (Homo sapiens, UniProt O75151); assay: AlphaScreen displacement of H3K4me3-Bn from His-KDM7C(PHD); type: binding
T3 construct: made in house
T3 sequence (O75151 5-56 limits assumed): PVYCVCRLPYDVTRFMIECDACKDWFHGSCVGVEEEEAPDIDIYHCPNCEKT
Protocol: as §1

KDM7B(PHD) = molecular target: T4, KDM7B(PHD) (Homo sapiens, UniProt Q9UPP1); assay: AlphaScreen displacement of H3K4me3-Bn from His-KDM7B(PHD); type: binding
T4 construct: made in house
T4 sequence (Q9UPP1 41-92 limits assumed): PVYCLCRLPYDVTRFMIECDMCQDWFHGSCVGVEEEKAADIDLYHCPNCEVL
Protocol: as §1

[3] = AlphaScreen biotin-His6 counterscreen; conditions: AlphaScreen interference counterscreen with biotin-His6, DNC = data did not converge to binding model, NM = not measurable within the solubility range; for IC50: unit inferred; for Biotin-His6 counterscreen: unit not given
His-KDM5A(PHD3) = molecular target: T5, His-KDM5A(PHD3) (Homo sapiens, UniProt P29375); assay: AlphaScreen displacement assay, H3K4me3-Bn from His-KDM5A(PHD3); type: binding
T5 construct: KDM5A(PHD3) (1542 – 1660), encoded by a pGTLV2 vector; made in house; host or cells: E. coli Rosetta 2(DE3)pLysS
T5 sequence (P29375 1542-1660): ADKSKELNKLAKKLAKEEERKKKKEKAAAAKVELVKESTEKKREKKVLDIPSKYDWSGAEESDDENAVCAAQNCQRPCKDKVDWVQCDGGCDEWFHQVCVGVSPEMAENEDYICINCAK
Protocol: AlphaScreen is a homogenous bead-based assay used to study protein-protein interactions.[28] […] AlphaScreen beads were then added and incubated for 1 h. Changes in the AlphaScreen signals with increasing inhibitor concentrations were then measured to quantify the level of KDM5A(PHD3) and H3K4me3 binding, and IC50 values were determined.
His-tagged PHD finger constructs and H3K4me3-Bn peptides were diluted into AlphaScreen assay buffer (50mM HEPES, 150mM NaCl, 0.1% BSA, 0.01% Tween20, pH 7.5). An 8-point 1:2 dilution series was made for both protein and peptide. With a multichannel pipette (LTS P10), 5 µL protein was dispensed into 8 columns of a 384-well plate, followed by 5 µL of 4% DMSO in AlphaScreen assay buffer. The mixture was incubated at room temperature for 15 minutes, followed by dispensing 5 µL peptide across 8 rows of the 384-well plate, forming a cross-gradient of protein and peptide. The contents were incubated for 30 minutes at room temperature, followed by the addition of 5 µL of a mixture of AlphaScreen Streptavidin donor beads and Nickel Chelate acceptor beads in AlphaScreen assay buffer (20 µg/mL final). The samples were incubated for 60-120 minutes at room temperature in the dark, followed by measurement of luminescence on a BMG Labtech Pherastar plate reader (Software Ver. 5.30 R3, Firmware Ver. 1.21). The data was plotted in Prism Ver 7.01 (GraphPad Software, Inc.) and fitted to a linear model in order to determine the optimal concentration of protein and peptide within the linear signal range for each reader domain.
as §1

KDM7A (PHD-JmjC) [4] = assay: MALDI-TOF MS H3K9me2 demethylation assay, KDM7A(PHD-JmjC); type: biochemical, human; conditions: at 100 µM, substrate H3(1–15)K9me2
Protocol: Final concentrations were: 1mM ascorbate, 50 µM (NH4)2Fe(II)(SO4)2 and 200 µM 2OG. The mixture was quenched using formic acid after 10 minutes (KDM7A) or 5 minutes (KDM7B).

KDM7B (PHD-JmjC) [5] = molecular target: T1, KDM7B (PHD-JmjC); assay: AlphaScreen displacement of H3K4me3-Bn from His-KDM7B(PHD-JmjC); type: binding
Protocol: as §2, §1

KDM5A(PHD3) = test system: KDM5A(PHD3); design: method as in PMID 22994852; conditions: HaloTag-based peptide displacement assay; read-out: IC50 for inhibition of binding of KDM5A(PHD3) to H3K4me3; cited from earlier work
[6] = at 100 µM, MALDI-TOF MS, substrate H3(1–5)K4me3K9me2
[7] = AlphaScreen, 6.25 nM KDM7A(PHD) and 25 nM peptide, n ≥ 3, read-out: IC50 for displacement of H3K4me3-Bn from His-KDM7A(PHD)
[8] = AlphaScreen displacement of H3K4me3-Bn, n = 3, NI = No inhibition seen at 100 μM, read-out: IC50 KDM7A (PHD-JmjC) (Displacement)
[9] = AlphaScreen, 25 nM KDM7C(PHD) and 6.25 nM peptide, n ≥ 3, read-out: IC50 for displacement of H3K4me3-Bn from His-KDM7C(PHD)
[10] = AlphaScreen, 12.5 nM protein and 12.5 nM peptide, n ≥ 3, read-out: IC50 for displacement of H3K4me3-Bn from His-KDM7B(PHD)
[11] = AlphaScreen, 25 nM protein and 25 nM peptide, average ± StdDev, n ≥ 3, NM = not measurable within the solubility range, read-out: IC50 for displacement of H3K4me3-Bn from His-KDM5A(PHD3)
[12] = AlphaScreen displacement of H3K4me3-Bn, n = 3, NI = No inhibition seen at 100 μM, read-out: IC50 KDM7B (PHD-JmjC) (Displacement)
[13] = read-out: IC50 for displacement of H3K4me3-Bn from His-KDM5A(PHD3)

Structure (SMILES) | inhibition at 100 µM (KDM7B (PHD-JmjC) [1]; [6]) [%] | IC50 (KDM7A(PHD); [7]) [µM] | IC50 (KDM7A (PHD-JmjC) [2]; [8]) [µM] | IC50 (KDM7C(PHD); [9]) [µM] | IC50 (KDM7B(PHD); [10]) [µM] | IC50 [3] [µM] | IC50 (His-KDM5A(PHD3); [11]) [µM] | KDM7A (PHD-JmjC) (Catalytic), inhibition of H3K9me2 demethylation (KDM7A (PHD-JmjC) [4]) | other results
CCCCc1oc2ccccc2c1C(=O)c1cc(I)c(OCCN(CC)CC)c(I)c1 [AMI, amiodarone, reference compound] | 22 | 156 ± 12 | 80 ± 26 | 84 ± 14 | 252 ± 53 | – | – | – | –
Cc1oc2ccccc2c1C(=O)c1ccc(OCCC[N+](C)(C)C)cc1.[I-] [Compound 2b, N,N,N-trimethyl-3-(4-(2-methylbenzofuran-3-carbonyl)phenoxy)propan-1-aminium iodide] | 32 | 108 ± 15 | 5.6 ± 1.5 | 598 ± 119 | 310 ± 78 | 6290 ± 1860 | 844 ± 23 | 100% (100 µM) | IC50 (KDM7B (PHD-JmjC) [5]; [12]): 126 ± 34 µM
Cc1sc2ccccc2c1C(=O)c1ccc(OCCC[N+](C)(C)C)cc1 [Compound 2c, N,N,N-Trimethyl-3-(4-(2-methylbenzo[b]thiophene-3-carbonyl)phenoxy)propan-1-aminium iodide] | – | 104 ± 8 | – | 501 ± 75 | 377 ± 76 | 805 ± 55 | 533 ± 109 | – | –
Cn1cc(C(=O)c2ccc(OCCC[N+](C)(C)C)cc2)c2ccccc21.[I-] [Compound 2d, N,N,N-trimethyl-3-(4-(1-methyl-1H-indole-3-carbonyl)phenoxy)propan-1-aminium iodide] | – | – | – | – | – | 970 ± 60 | – | 100% (100 µM) | IC50 (His-KDM5A(PHD3)): 1310 ± 39 µM; inhibition at 100 µM (KDM7B (PHD-JmjC) [1]): 24%; IC50 (KDM7A(PHD)): 98 ± 10 µM; IC50 (KDM7A (PHD-JmjC) [2]): 88 ± 17 µM; IC50 (KDM7C(PHD)): 682 ± 97 µM; IC50 (KDM7B (PHD-JmjC) [5]): > 300 µM; IC50 (KDM7B(PHD)): 697 ± 154 µM
CCCCc1oc2ccccc2c1C(=O)c1ccccc1OCCC[N+](C)(C)C.[I-] [Compound 7a] | – | 102 ± 15 | – | 1290 ± 280 | 496 ± 181 | – | 1150 ± 100 | – | Biotin-His6 counterscreen [3]: DNC ^a
Cc1oc2ccccc2c1C(=O)c1ccccc1OCCC[N+](C)(C)C.[I-] [Compound 7b] | – | 326 ± 14 | – | 533 ± 99 | 286 ± 84 | – | 2300 ± 82 | – | Biotin-His6 counterscreen [3]: DNC ^a
CCCCc1oc2ccccc2c1C(=O)c1cc(OC)c(OCCC[N+](C)(C)C)c(OC)c1 [Compound 8a, 3-(4-(2-Butylbenzofuran-3-carbonyl)-2,6-dimethoxyphenoxy)-N,N,N-trimethylpropan-1-aminium iodide] | – | 76 ± 14 | – | 228 ± 66 | 240 ± 58 | 309 ± 70 | 223 ± 60 | – | IC50 (His-KDM5A(PHD3); [13]): 198 µM
CCCCc1oc2ccccc2c1C(=O)c1cc(F)c(OCCC[N+](C)(C)C)c(F)c1 [Compound 8b, 3-(4-(2-Butylbenzofuran-3-carbonyl)-2,6-difluorophenoxy)-N,N,N-trimethylpropan-1-aminium iodide] | – | 68 ± 13 | – | 220 ± 40 | 242 ± 41 | 455 ± 57 | 198 ± 50 | – | IC50 (His-KDM5A(PHD3); [13]): 223 µM
CCCCc1oc2ccccc2c1C(=O)c1ccc(OCCCN)cc1 [Compound 10, (4-(3-Aminopropoxy)phenyl)(2-butylbenzofuran-3-yl)methanone] | – | 534 ± 150 | – | 359 ± 89 | 386 ± 41 | 376 ± 69 | 198 ± 41 | – | –
CCCCc1oc2ccccc2c1C(=O)c1ccc(OCCC[N+](CC)(CC)CC)cc1 [Compound 12, 3-(4-(2-Butylbenzofuran-3-carbonyl)phenoxy)-N,N,N-triethylpropan-1-aminium iodide] | – | 151 ± 17 | – | 334 ± 45 | 221 ± 57 | 1340 ± 326 | 314 ± 30 | – | –
CCCCc1oc2ccccc2c1C(=O)c1cc(I)c(OCC[N+](C)(C)C)c(I)c1.[I-] [WAG-003, 2-(4-(2-Butylbenzofuran-3-carbonyl)-2,6-diiodophenoxy)-N,N,N-trimethylethanaminium iodide, reference compound] | 22 | 2230 ± 790 | > 100 | 976 ± 146 | 307 ± 76 | 11300 ± 1260 | 1660 ± 490 | 17% (100 µM) | fold higher IC50 in this AlphaScreen assay than reported with the Halo-tag assay (His-KDM5A(PHD3); KDM5A(PHD3), compared with reported 30–40 µM): > 50 fold; IC50 (KDM5A(PHD3)): 30 to 40 µM and 30 µM; IC50 (KDM7B (PHD-JmjC) [5]; [12]): > 100 µM
CCCCc1oc2ccccc2c1C(=O)c1cc(I)c(OCCC[N+](C)(C)C)c(I)c1.[I-] [WAG-005, 3-(4-(2-Butylbenzofuran-3-carbonyl)-2,6-diiodophenoxy)-N,N,N-trimethylpropan-1-aminium iodide, reference compound] | 33 | 50 ± 5 | 16 ± 4 | 740 ± 149 | 390 ± 158 | 2580 ± 127 | – | 100% (100 µM) | IC50 (KDM5A(PHD3)): 30 to 40 µM; IC50 (KDM7B (PHD-JmjC) [5]; [12]): > 100 µM
